Measured values: US20090209570A1 (priority 2001, published 2009)
Structures can show the parent of a compound that is named as a salt. Where two headings read alike, the source gives them in different places.

Assays:
μ-opioid receptors = biological target: T1, μ-opioid receptors (Rattus norvegicus, UniProt P33535); assay: Opioid receptor binding studies with [3H]DAMGO on rat's brain homogenisates
T1 construct: from tissue; host or cells: rat brain homogenate

anaesthetised rats = conditions: rat, in vivo; for respiratory depression at analgesic doses (in words): sc
rats = assay: Analgesia test (rat tail flick test); format: in vivo; conditions: for Analgesic effect (in percent) after 10 minutes / Analgesic effect (in percent) after 20 minutes / Analgesic effect (in percent) after 30 minutes / Analgesic effect (in percent) after 60 minutes / Analgesic effect (in percent) after 120 minutes / Analgesic effect (in percent) after 180 minutes: 3 0.5 μg/rat, 4 0.25 μg/rat, rats 120 g; for Analgesic effect (in percent) after 10 minutes / Analgesic effect (in percent) after 20 minutes / Analgesic effect (in percent) after 30 minutes / Analgesic effect (in percent) after 60 minutes / Analgesic effect (in percent) after 120 minutes: morphine 50 μg/rat; for sc/icv: ratio of tail flick ED50 sc to icv
Procedure: A test on rats was applied (“rat tail flick test”). This test was carried out as previously described (Zs. Fürst et al., Eur. J. Pharmacol. 1993, Vol. 236, pp. 209-215).

in vivo = conditions: rat
[1] = system: rats with ligations around the ischias nerve; assay: Cold water allodynia test (thermal allodynia); format: in vivo, rat
Procedure: (§1) The tests involve models to test the effect of a substance on neuropathic pain.
(§2) For both tests ligations were applied around the ischias nerve (G. J. Bennett and Y. K. Xie, Pain 1988, Vol. 33, 87-107).
Thermal stimulation (cold water) was used to initiate withdrawal of the hind paw of the rats (200-300 g). After 5, 15 and 30 min (after application of the substance) the latency period of the withdrawal of the hind paw was studied (J. C. Hunter et al., Eur. J. Pharmacol., 1997, Vol. 324, 153-160). The substances to be investigated were applied via intraplant (ipl).

[2] = system: rats with ligations around the ischias nerve; assay: Von Frey test (mechanical allodynia); format: in vivo, rat
Procedure: as §1, §2
A slight pressure (2 to 60 g) was exerted on the skin of the hind paw of the rats (200-250 g) using Von Frey hairs and the latency period of withdrawal of the hind paw was studied at various time intervals (5, 15, 30 and 60 minutes after the application of the substance). The substance to be investigated was applied via intraplant (ipl).

[3] = system: carrageen-induced hyperalgesia on the right hind paw of rats; assay: Randall-Selitto test (hind-paw withdrawal latency, mechanical stimulation); format: in vivo, rat
Procedure: The Randall-Selitto Test (L. O. Randall and J. J. Selitto, Arch. Int. Pharmacodyn. 1957, Vol. 111, pp. 409-419) was applied to study the analgesic effect on carrageen-induced hyperalgesia on the right hind paw of rats. In this way the “hind-paw withdrawal latency” (HWL; latency period for withdrawing the right hind paw) with mechanical stimulation (e.g. I. Bileviciute-Ljungar and M. Spetea, Br. J. Pharmcol. 2001, Vol. 132, pp. 252-258) is measured.

[4] = central, rat tail flick test, intracerebroventricular application, read-out: ED50 (μg/kg, icv)
[5] = sc, rat tail flick test, subcutaneous application, read-out: ED50 (μg/kg, sc)
[6] = 100 μg/rat after subcutaneous application
[7] = peripherally acting opioid antagonist
[8] = 20 μg/kg, subcutaneous application

T1 sequence (P33535 whole entry): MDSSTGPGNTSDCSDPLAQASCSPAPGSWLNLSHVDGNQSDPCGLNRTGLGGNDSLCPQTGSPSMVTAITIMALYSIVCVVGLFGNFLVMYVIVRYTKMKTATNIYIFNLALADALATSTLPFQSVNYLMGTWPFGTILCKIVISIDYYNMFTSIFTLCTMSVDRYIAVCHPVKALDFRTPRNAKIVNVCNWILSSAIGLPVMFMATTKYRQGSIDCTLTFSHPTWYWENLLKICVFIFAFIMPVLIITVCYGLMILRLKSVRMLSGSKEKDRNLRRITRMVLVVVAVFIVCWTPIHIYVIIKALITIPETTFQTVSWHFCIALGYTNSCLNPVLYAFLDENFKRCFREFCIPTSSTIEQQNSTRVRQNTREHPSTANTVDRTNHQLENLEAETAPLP

Compound: CO[C@@]12CC[C@@H](N)[C@@H]3Oc4c(O)ccc5c4[C@@]31CCN(C)[C@@H]2C5
- melting point: > 235 °C

Compound: CCOC(=O)CN[C@@H]1CC[C@@]2(OC)[C@H]3Cc4ccc(O)c5c4[C@@]2(CCN3C)[C@H]1O5 (as salt: hydrochloride) [Compound 23, (4,5α-epoxy-3-hydroxy-14β-methoxy-17-methylmorphinan-6β-ylamino)-acetic acid-ethylester dihydrochloride]
- melting point: > 200 °C

Compound: CO[C@@]12CCC(NCC(=O)OC(C)(C)C)[C@@H]3Oc4c(O)ccc5c4[C@@]31CCN(C)C2C5 (stereo in doubt) [Compound 2, (4,5α-epoxy-3-hydroxy-14β-methoxy-17-methylmorphinan-6β-ylamino)-acetic acid-tert.-butylester]
- Ki (μ-opioid receptors): 1.3 nM

Compound: CO[C@@]12CC[C@H](NCC(=O)OC(C)(C)C)[C@@H]3Oc4c(O)ccc5c4[C@@]31CCN(C)[C@@H]2C5 [Compound 1, (4,5α-epoxy-3-hydroxy-14β-methoxy-17-methylmorphinan-6α-ylamino)-acetic acid-tert.-butylester]
- Ki (μ-opioid receptors): 0.48 nM

Compound: CO[C@@]12CC[C@H](NCC(=O)O)[C@@H]3Oc4c(O)ccc5c4[C@@]31CCN(C)C2C5 [Compound 3, (4,5α-epoxy-3-hydroxy-14β-methoxy-17-methylmorphinan-6α-ylamino)-acetic acid sesqui(trifluoroacetate)]
- respiratory depression at analgesic doses (in words) (anaesthetised rats): not able to initiate a respiratory depression
- ED50 (rats; [4]): 0.49 µg/kg
- passage of the blood-brain barrier (concluded from sc/icv figures) (rats; conclusion from tail flick sc/icv ratio): only overcome the blood-brain barrier in a very restricted manner
- Analgesic effect (in percent) after 10 minutes (rats; icv): 46%
- Analgesic effect (in percent) after 20 minutes (rats; icv): 62%
- Analgesic effect (in percent) after 30 minutes (rats; icv): 59%
- Analgesic effect (in percent) after 60 minutes (rats; icv): 100%
- Analgesic effect (in percent) after 120 minutes (rats; icv): 100%
- Analgesic effect (in percent) after 180 minutes (rats; icv): 90%
- analgesic activity (in words) (rats; rat tail flick test): very high analgesic activity
- sc/icv (rats): 176
- ED50 (rats; [5]): 86 µg/kg
- ED50 (in vivo): 0.00083 mg/kg
- ED50 (in vivo; sc): 1 mg/kg

Compound: CO[C@@]12CC[C@@H](NCC(=O)O)[C@@H]3Oc4c(O)ccc5c4[C@@]31CCN(C)C2C5 [Compound 4, (4,5α-epoxy-3-hydroxy-14β-methoxy-17-methylmorphinan-6β-ylamino)-acetic acid sesqui(trifluoroacetate)]
- respiratory depression at analgesic doses (in words) (anaesthetised rats): not able to initiate a respiratory depression
- ED50 (rats; [4]): 0.42 µg/kg
- Analgesic effect (in percent) after 10 minutes (rats; icv): 61%
- Analgesic effect (in percent) after 20 minutes (rats; icv): 74%
- Analgesic effect (in percent) after 30 minutes (rats; icv): 76%
- Analgesic effect (in percent) after 60 minutes (rats; icv): 100%
- Analgesic effect (in percent) after 120 minutes (rats; icv): 100%
- Analgesic effect (in percent) after 180 minutes (rats; icv): 90%
- analgesic activity (in words) (rats; rat tail flick test): very high analgesic activity
- times as active as morphine after intracerebroventricular application (icv) (rats; rat tail flick test, icv, relative to morphine): 238 times
- times as active as morphine after subcutaneous application (sc) (rats; rat tail flick test, sc, relative to morphine): 68 times
- sc/icv (rats): 67
- ED50 (rats; [5]): 28 µg/kg
- ED50 (in vivo): 0.00042 mg/kg
- ED50 (in vivo; sc): 0.5 mg/kg
- anti-allodynic activity (rise of at least 100% in latency of hind paw withdrawal taken as significant) [1, 6]: significant anti-allodynic activity
- anti-allodynic effect after naloxone methiodide (ipl) [1, 7]: completely neutralise
- anti-allodynic activity (rise of at least 100% in latency of hind paw withdrawal taken as significant) [2, 6]: significant anti-allodynic activity
- anti-allodynic effect after naloxone methiodide (ipl) [2, 7]: completely neutralise
- analgesic activity (rise in HWL of at least 100% taken as significant) [3, 8]: significant analgesic activity
- duration of analgesic effect [3, 8]: approx. 14 hours
- passage of the blood-brain barrier (concluded from naloxone methiodide antagonism) ([3]; conclusion from the Randall-Selitto test): cannot overcome the blood-brain barrier

Compound: CO[C@@]12CC[C@H](N[C@@H](C)C(=O)O)[C@@H]3Oc4c(O)ccc5c4[C@@]31CCN(C)C2C5 [Compound 7, (2′S)-2′-(4,5α-epoxy-3-hydroxy-14β-methoxy-17-methylmorphinan-6α-ylamino)-propionic acid bis(tetrafluoroborate)]
- ED50 (rats; [4]): 0.75 µg/kg
- analgesic activity (in words) (rats; rat tail flick test): very high analgesic activity
- sc/icv (rats): 133
- ED50 (rats; [5]): 100 µg/kg

Compound: CO[C@@]12CC[C@@H](N[C@@H](C)C(=O)O)[C@@H]3Oc4c(O)ccc5c4[C@@]31CCN(C)C2C5 [Compound 8, (2′S)-2′-(4,5α-epoxy-3-hydroxy-14β-methoxy-17-methylmorphinan-6β-ylamino)-propionic acid bis(tetrafluoroborate)]
- ED50 (rats; [4]): 0.67 µg/kg
- analgesic activity (in words) (rats; rat tail flick test): very high analgesic activity
- sc/icv (rats): 746
- ED50 (rats; [5]): 500 µg/kg

Compound: CO[C@@]12CC[C@H](N[C@@H](Cc3ccccc3)C(=O)O)[C@@H]3Oc4c(O)ccc5c4[C@@]31CCN(C)C2C5 [Compound 11, (2′S)-2′-(4,5α-epoxy-3-hydroxy-14β-methoxy-17-methylmorphinan-6α-ylamino)-3′-phenylpropionic acid bis(tetrafluoroborate)]
- Ki (μ-opioid receptors): 0.95 nM

Compound: CO[C@@]12CC[C@@H](NC(=NC(=O)OC(C)(C)C)NC(=O)OC(C)(C)C)[C@@H]3Oc4c(O)ccc5c4[C@@]31CCN(C)C2C5 [Compound 16]
- Ki (μ-opioid receptors; [3H]DAMGO as radio-ligand, rat's brain homogenisates, read-out: Ki (nM) (μ-receptors)): 0.61 nM

Compound: CO[C@@]12CC[C@@H](NC(=N)N)[C@@H]3Oc4c(O)ccc5c4[C@@]31CCN(C)[C@@H]2C5 [Compound 17, 4,5α-epoxy-6β-guanidinyl-14β-methoxy-17-methylmorphinan-3-ol dihydrochloride]
- Ki (μ-opioid receptors): 0.25 nM

Compound: CCOC(=O)CN[C@H]1CC[C@@]2(OC)[C@H]3Cc4ccc(O)c5c4[C@@]2(CCN3C)[C@H]1O5 [Compound 22, (4,5α-epoxy-3-hydroxy-14β-methoxy-17-methylmorphinan-6α-ylamino)-acetic acid-ethylester dihydrochloride]
- Ki (μ-opioid receptors): 0.21 nM

Compound: CCOC(=O)CN[C@@H]1CC[C@@]2(OC)[C@H]3Cc4ccc(O)c5c4[C@@]2(CCN3C)[C@H]1O5 [Compound 23, (4,5α-epoxy-3-hydroxy-14β-methoxy-17-methylmorphinan-6β-ylamino)-acetic acid-ethylester dihydrochloride]
- Ki (μ-opioid receptors): 0.8 nM

Compound: O=C(O)CN[C@@H]1CC[C@@]2(OCCCc3ccccc3)[C@H]3Cc4ccc(O)c5c4[C@@]2(CCN3CC2CC2)[C@H]1O5 [Compound 38, {17-cyclopropylmethyl-4,5α-epoxy-3-hydroxy-14β-[(3-phenylpropyl)oxy]-morphinan-6β-ylamino}acetic acid dihydrochloride]
- Ki (μ-opioid receptors): 0.24 nM

Compound: CN1CC[C@]23c4c5ccc(O)c4O[C@H]2[C@@H](O)C=C[C@H]3[C@H]1C5 [Morphine, morphine, reference compound]
- sc/icv (anaesthetised rats): 34
- ED50 (rats; [4]): 100 µg/kg
- Analgesic effect (in percent) after 10 minutes (rats; icv): 57%
- Analgesic effect (in percent) after 20 minutes (rats; icv): 91%
- Analgesic effect (in percent) after 30 minutes (rats; icv): 74%
- Analgesic effect (in percent) after 60 minutes (rats; icv): 59%
- Analgesic effect (in percent) after 120 minutes (rats; icv): 20%
- sc/icv (rats): 19
- ED50 (rats; [5]): 1900 µg/kg
- ED50 (in vivo): 0.083 mg/kg
- ED50 (in vivo; sc): 2.8 mg/kg
